Data set [1] deals with T1, human D2R/β-arrestin (Homo sapiens (Human), UniProt P14416). The experiment in a line: cell-based. Conditions: cAMP Antagonist, CHO-K1 cell line expressing human D2R/β-arrestin; quinpirole used as agonist.
The nature of data set [2]: Microsomal stability, mouse.
For data set [3], the target named is T1, human D2R/β-arrestin. The experiment in a line: cell-based. Conditions: β-arrestin Antagonist, CHO-K1 cell line expressing human D2R/β-arrestin; quinpirole used as agonist.
Data set [4] has as its target T1, human D2R/β-arrestin. The experiment in a line: Gi/cAMP agonist assay (Lance Ultra cAMP, Forskolin). The format is cell-based. The conditions noted are these: CHO-K1 cell line expressing human D2R/β-arrestin. Put shortly: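 Cells were plated and incubated before compounds were pin-transferred and incubated for 10 min at 37 °C. Forskolin was then added to stimulate cAMP. cAMP was detected by Lance Ultra TR-FRET using Eu-cAMP tracer and ULight-anti-cAMP antibody.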

Data set [5] concerns the target T1, human D2R/β-arrestin. The experiment in a line: β-Arrestin agonist assay (PathHunter). Type of data set: cell-based. The conditions noted are these: CHO-K1 cell line expressing human D2R/β-arrestin. Put shortly: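 After compound incubation, detection reagent (Buffer:Emerald II:Galactor-Star, 19:5:1) added and luminescence or fluorescence read.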

T1 sequence (P14416 whole entry): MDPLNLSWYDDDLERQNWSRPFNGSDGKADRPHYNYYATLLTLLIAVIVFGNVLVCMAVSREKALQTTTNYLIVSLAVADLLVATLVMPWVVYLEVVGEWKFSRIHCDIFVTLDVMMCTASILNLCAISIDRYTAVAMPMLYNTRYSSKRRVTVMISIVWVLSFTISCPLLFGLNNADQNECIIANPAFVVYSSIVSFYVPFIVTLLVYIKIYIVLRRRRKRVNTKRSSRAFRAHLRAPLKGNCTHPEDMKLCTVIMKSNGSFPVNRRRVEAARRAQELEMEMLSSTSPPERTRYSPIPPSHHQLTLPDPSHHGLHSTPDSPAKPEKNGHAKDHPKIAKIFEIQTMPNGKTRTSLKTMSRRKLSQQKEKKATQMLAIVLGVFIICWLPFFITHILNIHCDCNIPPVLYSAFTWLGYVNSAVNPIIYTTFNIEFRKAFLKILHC

What is called IC50 is the concentration that gives 50% inhibition. Low readings indicate greater potency in that assay, high ones weaker potency in that assay. Usually EC50 stands for the midpoint of the concentration-response curve. Read a high EC50 as lower potency in that assay. Consider `O=C(NC(c1ccc(Cl)cc1)c1ccncc1F)C1CCN(CCOc2ccccc2F)CC1` (single isomer, unassigned) [Compound 91b, N-((4-chlorophenyl)(3-fluoropyridin-4-yl)methyl)-1-(2-(2-fluorophenoxy)ethyl)piperidine-4-carboxamide], for which the IC50 on human D2R/β-arrestin [1] and at human D2R/β-arrestin [3] was 100 to 1000 nM throughout. Further, the “Microsomal Stability: % remaining after 60 minutes” value in data set [2] is on record as “m1%”. Also, the EC50 at human D2R/β-arrestin [4] and at human D2R/β-arrestin [5] was > 30000 nM throughout.
`Fc1ccccc1OCCN1CCC(CNC(c2ccc(Cl)cc2)c2ccccn2)CC1` (stereo not drawn) [Compound 121, 1-(4-chlorophenyl)-N-((1-(2-(2-fluorophenoxy)ethyl)piperidin-4-yl)methyl)-1-(pyridin-2-yl) methanamine]: the IC50 on human D2R/β-arrestin [1] and on human D2R/β-arrestin [3] was 100 to 1000 nM each time. For the same compound, the EC50 on human D2R/β-arrestin [4] and at human D2R/β-arrestin [5] was > 30000 nM in each case.
With `Fc1ccc(C(NCC2CCN(CCOc3ccccc3F)CC2)c2ccccn2)cc1` (stereo not drawn) [Compound 122, N-((1-(2-(2-fluorophenoxy)ethyl)piperidin-4-yl)methyl)-1-(4-fluorophenyl)-1-(pyridin-2-yl) methanamine], the IC50 at human D2R/β-arrestin [1] and on human D2R/β-arrestin [3] was 100 to 1000 nM in each case. The EC50 was 1000 to 10000 nM at human D2R/β-arrestin [4] and > 30000 nM at human D2R/β-arrestin [5].
As for `O=C(NC(c1ccc(Cl)cc1)c1ccccc1F)C1CCN(CCOc2cc(F)ccc2F)CC1` (stereo not drawn) [Compound 123, N-((4-chlorophenyl)(2-fluorophenyl)methyl)-1-(2-(2,5-difluorophenoxy)ethyl) piperidine-4-carboxamide], the values for the IC50 at human D2R/β-arrestin [1] and on human D2R/β-arrestin [3] were > 30000 nM and 100 to 1000 nM, respectively. In addition, the EC50 on human D2R/β-arrestin [4] was < 100 nM; on human D2R/β-arrestin [5], > 30000 nM.
Turning to `O=C(NC1CCN(CCOc2ccccc2)CC1)C(c1ccc(Cl)cc1)c1ccccn1` (stereo not drawn) [Compound 126, 2-(4-chlorophenyl)-N-(1-(2-phenoxyethyl)piperidin-4-yl)-2-(pyridin-2-yl)acetamide], the IC50 at human D2R/β-arrestin [1] was > 30000 nM; on human D2R/β-arrestin [3], 1000 to 10000 nM. Also, the EC50 on human D2R/β-arrestin [4] was < 100 nM; on human D2R/β-arrestin [5], > 30000 nM.
For `COc1cccc(C(NC(=O)C2CCN(CCOc3ccccc3)CC2)c2cocn2)c1` (stereo not drawn) [Compound 129, N-((3-methoxyphenyl)(oxazol-4-yl)methyl)-1-(2-phenoxyethyl)piperidine-4-carboxamide], the IC50 on human D2R/β-arrestin [1] and on human D2R/β-arrestin [3] was > 30000 nM each time. For the same compound, the half-maximal effective concentration (EC50) is 1000 to 10000 nM at human D2R/β-arrestin [4] and > 30000 nM at human D2R/β-arrestin [5].
Take `O=C(NC(c1ccc2c(c1)OC(F)(F)O2)c1ccccn1)C1CCN(CCOc2ccc(F)cc2F)CC1` (stereo not drawn) [Compound 130, N-((2,2-difluorobenzo[d][1,3]dioxol-5-yl)(pyridin-2-yl)methyl)-1-(2-(2,4-difluorophenoxy)ethyl)piperidine-4-carboxamide]: the IC50 at human D2R/β-arrestin [1] is > 30000 nM; at human D2R/β-arrestin [3], 1000 to 10000 nM. The EC50 at human D2R/β-arrestin [4] is < 100 nM; at human D2R/β-arrestin [5] it was 100 to 1000 nM.
The like results for `CN(CC1(C)CCN(CCOc2ccccc2)CC1)C(c1ccc(Cl)cc1)c1ccccn1` (stereo not drawn) [Compound 131, 1-(4-chlorophenyl)-N-methyl-N-((4-methyl-1-(2-phenoxyethyl)piperidin-4-yl)methyl)-1-(pyridin-2-yl)methanamine] were, in that order, > 30000 nM, 1000 to 10000 nM, < 100 nM and 1000 to 10000 nM.
The like results for `Fc1ccc(OCCN2CCC(CNC(c3ccc(Cl)cc3)c3ccccn3)CC2)cc1` (stereo not drawn) [Compound 132, 1-(4-chlorophenyl)-N-((1-(2-(4-fluorophenoxy)ethyl)piperidin-4-yl)methyl)-1-(pyridin-2-yl)methanamine] were, in that order, 1000 to 10000 nM, 1000 to 10000 nM, > 30000 nM and > 30000 nM.
Take `CC(C)N(CC1CCN(CCOc2ccccc2F)CC1)C(c1ccc(Cl)cc1)c1ccccn1` (stereo not drawn) [Compound 133, N-((4-chlorophenyl)(pyridin-2-yl)methyl)-N-((1-(2-(2-fluorophenoxy)ethyl)piperidin-4-yl)methyl)propan-2-amine]: the IC50 at human D2R/β-arrestin [1] and at human D2R/β-arrestin [3] was < 100 nM throughout. The EC50 on human D2R/β-arrestin [4] was < 100 nM; at human D2R/β-arrestin [5], > 30000 nM.
Turning to `COc1cccc(C(c2ccccn2)N(CC2CCN(CCOc3ccccc3F)CC2)C(C)C)c1` (stereo not drawn) [Compound 134, N-((1-(2-(2-fluorophenoxy)ethyl)piperidin-4-yl)methyl)-N-((3-methoxyphenyl)(pyridin-2-yl)methyl)propan-2-amine], the IC50 on human D2R/β-arrestin [1] and at human D2R/β-arrestin [3] was 100 to 1000 nM throughout. The EC50 on human D2R/β-arrestin [4] was < 100 nM; at human D2R/β-arrestin [5], > 30000 nM.
On to `Fc1ccccc1OCCN1CCC(CN(CC(F)(F)F)C(c2ccc(Cl)cc2)c2ccccn2)CC1` (stereo not drawn) [Compound 136, N-((4-chlorophenyl)(pyridin-2-yl)methyl)-2,2,2-trifluoro-N-((1-(2-(2-fluorophenoxy)ethyl)piperidin-4-yl)methyl)ethan-1-amine], for which the half-inhibitory concentration (IC50) at human D2R/β-arrestin [1] and at human D2R/β-arrestin [3] was < 100 nM in each case. The EC50 was 1000 to 10000 nM at human D2R/β-arrestin [4] and > 30000 nM at human D2R/β-arrestin [5].
Regarding `CN(CC1CCN(CCOc2ccccc2F)CC1)C(c1ccc2c(c1)OCO2)c1ccccn1` (stereo not drawn) [Compound 138, 1-(benzo[d][1,3]dioxol-5-yl)-N-((1-(2-(2-fluorophenoxy)ethyl)piperidin-4-yl)methyl)-N-methyl-1-(pyridin-2-yl)methanamine], the IC50 is > 30000 nM on human D2R/β-arrestin [1] and 100 to 1000 nM on human D2R/β-arrestin [3]. Besides, the concentration giving a half-maximal response (EC50) at human D2R/β-arrestin [4] is 100 to 1000 nM; on human D2R/β-arrestin [5] it was > 30000 nM.
In the case of `Fc1ccccc1OCCN1CCC(CNC(c2ccc3c(c2)OCO3)c2ccccn2)CC1` (stereo not drawn) [Compound 139, 1-(benzo[d][1,3]dioxol-5-yl)-N-((1-(2-(2-fluorophenoxy)ethyl)piperidin-4-yl)methyl)-1-(pyridin-2-yl)methanamine], the figures for the IC50 at human D2R/β-arrestin [1] and on human D2R/β-arrestin [3] were 100 to 1000 nM and 1000 to 10000 nM, respectively. The half-maximal effective concentration (EC50) is 1000 to 10000 nM on human D2R/β-arrestin [4] and > 30000 nM on human D2R/β-arrestin [5].
Turning to `O=C(NC(c1ccc(Cl)cc1)c1ccccn1)C1CCN(CC2COc3ccccc3O2)CC1` (stereo not drawn) [Compound 140, N-((4-chlorophenyl)(pyridin-2-yl)methyl)-1-((2,3-dihydrobenzo[b][1,4]dioxin-2-yl)methyl)piperidine-4-carboxamide], the IC50 at human D2R/β-arrestin [1] and at human D2R/β-arrestin [3] was 1000 to 10000 nM throughout. Also, the EC50 at human D2R/β-arrestin [4] is 1000 to 10000 nM; on human D2R/β-arrestin [5], > 30000 nM.
In the case of `O=C(NC(c1ccc(Cl)cc1)c1ccccn1)C1CCN(CCOc2ccccn2)CC1` (stereo not drawn) [Compound 141, N-((4-chlorophenyl)(pyridin-2-yl)methyl)-1-(2-(pyridin-2-yloxy)ethyl)piperidine-4-carboxamide], the IC50 on human D2R/β-arrestin [1] and at human D2R/β-arrestin [3] was 1000 to 10000 nM in each case. The EC50 on human D2R/β-arrestin [4] and on human D2R/β-arrestin [5] was > 30000 nM in each case.
Consider `O=C(NC(c1ccc(Cl)cc1)c1ccccn1)C1CCN(CCOc2ccncc2)CC1` (stereo not drawn) [Compound 142, N-((4-chlorophenyl)(pyridin-2-yl)methyl)-1-(2-(pyridin-4-yloxy)ethyl)piperidine-4-carboxamide], for which the IC50 on human D2R/β-arrestin [1] and on human D2R/β-arrestin [3] was 10000 to 30000 nM in each case. In addition, the EC50 on human D2R/β-arrestin [4] and on human D2R/β-arrestin [5] was > 30000 nM throughout.
`COc1cccc(C(NC(=O)C2(C)CCN(CCOc3ccccc3)CC2)c2ccccn2)c1` (stereo not drawn) [Compound 143, N-((3-methoxyphenyl)(pyridin-2-yl)methyl)-4-methyl-1-(2-phenoxyethyl)piperidine-4-carboxamide]: the IC50 is > 30000 nM on human D2R/β-arrestin [1] and 1000 to 10000 nM on human D2R/β-arrestin [3]. In addition, the EC50 was 100 to 1000 nM at human D2R/β-arrestin [4] and 1000 to 10000 nM on human D2R/β-arrestin [5].
Regarding `CC1(C(=O)NC(c2ccc(Cl)cc2)c2ccccn2)CCN(CCOc2ccccc2)CC1` (stereo not drawn) [Compound 144, N-((4-chlorophenyl)(pyridin-2-yl)methyl)-4-methyl-1-(2-phenoxyethyl)piperidine-4-carboxamide], the IC50 on human D2R/β-arrestin [1] was > 30000 nM; on human D2R/β-arrestin [3], < 100 nM. The EC50 at human D2R/β-arrestin [4] and at human D2R/β-arrestin [5] was < 100 nM in each case.
As to `COc1cccc(C(NC(=O)C2CCN(CCOc3ccc(F)cc3F)CC2)c2ccccn2)c1` (stereo not drawn) [Compound 145, 1-(2-(2,4-difluorophenoxy)ethyl)-N-((3-methoxyphenyl)(pyridin-2-yl)methyl)piperidine-4-carboxamide], the IC50 on human D2R/β-arrestin [1] and on human D2R/β-arrestin [3] was 1000 to 10000 nM each time. Besides, the results for the EC50 at human D2R/β-arrestin [4] and on human D2R/β-arrestin [5] were 10000 to 30000 nM and > 30000 nM, respectively.
As to `Oc1c(CN2CCN(c3ccccn3)CC2)cc(Cl)c2cccnc12` [MLS1547, reference compound], the results for the IC50 on human D2R/β-arrestin [1] and on human D2R/β-arrestin [3] were > 30000 nM and 1000 to 10000 nM, respectively. In addition, the EC50 on human D2R/β-arrestin [4] was < 100 nM; at human D2R/β-arrestin [5], > 30000 nM.
Regarding `O=C1CCc2ccc(OCCCCN3CCCN(c4cccc(Cl)c4Cl)CC3)nc2N1` [UNC9975, reference compound], the IC50 at human D2R/β-arrestin [1] and on human D2R/β-arrestin [3] was 100 to 1000 nM each time. In addition, the EC50 was < 100 nM on human D2R/β-arrestin [4] and > 30000 nM at human D2R/β-arrestin [5].
Regarding `Clc1cccc(C2CCN(CCCOc3ccc4scnc4c3)CC2)c1Cl` [UNC9994, reference compound], the IC50 at human D2R/β-arrestin [1] was > 30000 nM; at human D2R/β-arrestin [3] it was 100 to 1000 nM. The EC50 on human D2R/β-arrestin [4] was < 100 nM; on human D2R/β-arrestin [5], 100 to 1000 nM.
